Experiment: gradient 5% acetonitrile 3 min, to 50% in 2 min, to 85% in 15 min, held 3 min, 100 µL/min
Settings: column: Zorbax Extend-C18 2.1 x 50 mm; eluents: water / acetonitrile, 0.1% formic acid
Outline: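 Retention times of pure standards were taken from adduct peaks that were selected by computer and manually inspected. Over 3 months, mixtures of ~100 molecules were run by HPLC–quadrupole time-of-flight mass spectrometry in positive and negative ionization mode. The Zorbax Extend-C18 column (2.1 × 50 mm, 1.8 μm) ran at 100 μL/min in water and acetonitrile, each containing 0.1% formic acid, with 40 μL dead volume and 900 μL dwell volume.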

| SMILES | RP-LC retention time [s] |
| --- | --- |
| CC(NC(=O)c1ccc2ncnc(N3CCCCC3)c2c1)c1ccc(F)cc1 (stereo unspecified) | 687 |
| CN(CC1CCOC1)C(=O)Nc1ccccc1C(F)(F)F (stereo unspecified) | 713 |
| CNC(=O)[C@@H]1CN(C(=O)c2cc(C)no2)C[C@H]1COC | 558 |
| O=C(NCc1csc(-c2cccs2)n1)C1CCN(C(=O)c2ccc(F)cc2)CC1 | 743 |
| Cc1cc2c(cc1S(=O)(=O)N1CCCC1C(=O)Nc1ccccc1F)OC(C)C(=O)N2 (stereo unspecified) | 809 |
| O=S(=O)(c1ccc2c(c1)CCC2)N1CCCn2nc(-c3ccncc3)cc2C1 | 687 |
| O=S(=O)(c1ccccc1Br)N1CCC(c2noc(-c3ccccc3)n2)CC1 | 1160 |
| COc1ccccc1CC(=O)N1CCC2(CC1)N=C(c1ccc(Cl)cc1)NO2 | 884 |
| O=C(Nc1cnc(N2CCCC2)nc1)c1cccc(Br)c1 | 796 |
| O=C(CCC1CCCC1)Nc1c2c(nn1-c1cccc(Cl)c1)CS(=O)C2 (stereo unspecified) | 746 |
| O=C(NCCc1ccc(Cl)cc1)c1nnc(-c2ccc(S(=O)(=O)N3CCOCC3)cc2)o1 | 925 |
| CC12CC(c3ccccc3O1)C(C(=O)Nc1nc(-c3ccccc3)cs1)C(=O)N2 (stereo unspecified) | 996 |
| CCOC(=O)Cc1csc(NC(=O)Cn2nc3c(cc2=O)CCCCC3)n1 | 769 |
| Cn1nc(C(=O)N2C[C@@H]3C[C@H]2C[C@@H]3NC(=O)c2cccs2)c2ccccc21 | 766 |
| Cc1ccc(C(=O)N2CCC(Nc3ncnc4c3CCC4)C2)s1 (stereo unspecified) | 585 |
| O=C1Nc2cc(S(=O)(=O)NCCC3=CCCCC3)ccc2SC1C(=O)N1CCCC1 (stereo unspecified) | 858 |
| CCn1cnc(S(=O)(=O)N2CCCC(C(=O)NCc3ccc(Cl)cc3)C2)c1 (stereo unspecified) | 756 |
| Cn1nc(C(=O)N2CCCC(C(=O)NC3CC3)C2)c2c1CCN(C(=O)COc1ccc(F)cc1)C2 (stereo unspecified) | 674 |

| SMILES | RP-LC retention time [s] |
| --- | --- |
| CN1c2cc(F)ccc2C(=O)NC12CCN(C(=O)Nc1ccc3c(c1)OCCO3)CC2 | 725 |
| CN(C)C[C@@H]1CN(c2ncccn2)C[C@H]1NS(=O)(=O)Cc1ccccc1 | 601 |
| CCC(=O)Nc1c(C)noc1/C=C\c1ccc(S(=O)(=O)Nc2ccc(S(N)(=O)=O)cc2)cc1 | 695 |
| COc1ccc(C(=O)N2CCC3(CC2)NC(=O)c2ccc(Cl)cc2N3)cc1 | 735 |
| CCCN(C)C(=O)C1CCCCc2nnc(C(C)C)n21 (stereo unspecified) | 622 |
| O=C(c1cccnc1N1CCNC(c2ccccc2)C1)N1CCN(c2ncccn2)CC1 (stereo unspecified) | 604 |
| CC1(C)[C@H]2CC[C@](C)(C2)[C@H]1NS(=O)(=O)c1ccc(F)cc1 | 1140 |
| O=C(N[C@H]1C[C@@H]2C[C@H]1CN2C(=O)Cc1ccc(OC(F)(F)F)cc1)c1ccccc1 | 836 |
| CC1CCN(c2nn(CC(=O)Nc3ccc4c(c3)CCC4)c(=O)c3ccccc23)CC1 | 1250 |
| COCCNC(=O)C1CCCN(c2nccc(C)n2)C1 (stereo unspecified) | 584 |
| O=C(NCC1CC1)C1CCN(C(=O)c2ncn3c2COC(c2ccc(F)cc2)C3)CC1 (stereo unspecified) | 699 |
| CCn1cc(C(=O)NCCC(C)C)c2nn(-c3ccccc3)c(=O)c-2c1 | 878 |
| Cc1cc(-c2ccc(S(=O)(=O)N3CCC(C(=O)NCC4CC4)CC3)o2)n[nH]1 | 702 |
| CCCCN(CCCC)c1nc(-c2ccccc2)nc2ccccc12 | 976 |
| O=C(NC1CCCCC1)c1ccc(CN2CCN(Cc3ccccc3)C(=O)C2=O)cc1 | 787 |
| CCn1cc(CN2CCC(C(=O)NC(C)c3ccccc3)CC2)c2cc(Cl)ccc21 (stereo unspecified) | 753 |
| O=C(NCCCn1cccn1)c1cn2ccccc2n1 | 570 |
| CCCCOc1ccc(NC(=O)NCCN2CCN(S(C)(=O)=O)CC2)cc1 | 600 |

Next, values leading:

| RP-LC retention time [s] | SMILES |
| --- | --- |
| 980 | COc1cccc(CNC(=O)c2c(C)sc3ccn(Cc4ccc(F)cc4)c(=O)c23)c1 |
| 659 | COc1cccc(C(O)CN2CCN(c3ccccc3OC)CC2)c1 (stereo unspecified) |
| 677 | COCCc1noc(-c2cnc3nc(C)ccc3c2Nc2ccccc2)n1 |
| 778 | COc1ccc(-c2nc3ccc(C)cn3c2Nc2ccc(C)cc2)cc1 |
| 607 | COc1cc(C(=O)NCC(c2cccs2)N2CCOCC2)cc(OC)c1OC (stereo unspecified) |
| 1220 | O=C(COc1cc(O)c2c(=O)c3ccccc3oc2c1)OCc1ccccc1 |
| 663 | Cc1ccc(CNC(=O)C2Cn3cccc3C(=O)N2C)o1 (stereo unspecified) |
| 641 | COCC(C)(O)CNS(=O)(=O)Cc1cccc(F)c1 (stereo unspecified) |
| 1090 | Cc1cc(-c2c(C)sc(C)c2S(=O)(=O)Nc2ccc(C)c(C)c2)n[nH]1 |
| 647 | O=C(NCC1CCN(c2ncccn2)CC1)c1ccc(Br)o1 |
| 890 | O=C(CSc1nc(-c2cccc([N+](=O)[O-])c2)cs1)NCc1ccccc1 |
| 1070 | COc1cccc(Cn2c(C(=O)N3CCC(C(=O)NC4CCCCCC4)CC3)cc3ccsc32)c1 |
| 1120 | COc1ccc(NC(=O)Cn2c(N3CCOCC3)nc(C)cc2=O)cc1Cl |
| 882 | COCCNC(=O)NC1CCN(c2nc3cccnc3n(Cc3ccc(C)cc3)c2=O)CC1 |
| 599 | COc1cc(C(=O)N2CCN(c3cc(N(C)C)nc(C)n3)CC2)cc(OC)c1OC |
| 1080 | CCOC(=O)c1c(C)oc2nc(C)nc(NCc3cccc(OC)c3)c12 |
| 684 | CCOC(=O)c1cnc2nc(C)ccc2c1Nc1ccccc1F |
| 885 | COc1ccc(NC(=O)C2CCN(S(=O)(=O)c3cc(-c4noc(C)n4)cs3)CC2)c(OC)c1 |
| 632 | COc1cc(CNC(=O)c2cn3ccc(C)cc3n2)cc(OC)c1 |
| 657 | COc1ccc(Cl)cc1C(=O)NCCc1c[nH]c2ccc(C)cc12 |
| 903 | O=C(NCCc1ccccc1)Nc1nccn(-c2ccc(F)c(F)c2)c1=O |
| 918 | COc1ccc(-c2nc(CCNS(=O)(=O)c3ccc(Cl)s3)cs2)cc1OC |
| 1070 | COC(=O)c1ccccc1Nc1c(-c2ccc(SC)cc2)nc2cnccn12 |
| 546 | CCN(CC)c1ccc(C2C(C#N)=C(N)Oc3n[nH]c(C)c32)cc1 (stereo unspecified) |
| 650 | COc1ccc(-c2nc(C)cc(C)c2CNS(=O)(=O)c2ccccc2F)cc1 |
| 719 | CCN(CC)c1nc(-c2cccc(C)c2)nnc1C |
| 858 | O=C(NCc1ccc(F)cc1F)c1cn2cc(Cl)ccc2n1 |
| 1290 | Cc1ccc(NC(=O)c2c(C)sc3ncnc(N4CCCC(C)C4)c23)cc1F (stereo unspecified) |
| 670 | O=C(Cn1nc2nc(N3CCCC3)ccn2c1=O)NCc1ccc(F)c(Cl)c1 |
| 860 | Cc1ccc(NC(=O)C2CCCN2S(=O)(=O)c2cc3c(cc2C)NC(=O)C(C)O3)cc1F (stereo unspecified) |

Reference: the METLIN SMRT retention time set (Domingo-Almenara et al. 2019)
